Measurements: US8450305B2, “Macrocyclic compounds useful as inhibitors of kinases and HSP90” (Universite de Strasbourg, priority 2006, dated 2013)

Assays:
Format in all cases: biochemical
Aurora-B = molecular target: T1, Aurora-B (Homo sapiens, UniProt Q96GD4); test: Radiometric protein kinase assay, Aurora-B; details: 1 μM ATP; read-out: Inhibitory activity (IC50:μM) Aurora-B
T1 construct: host or cells: Sf9 insect cells (baculovirus)
Source text: (§1) All protein kinases were expressed in Sf9 insect cells as human recombinant GST-fusion proteins or His-tagged proteins by means of the baculovirus expression system. Kinases were purified by affinity chromatography using either GSH-agarose (Sigma) or Ni-NTH-agarose (Qiagen). The purity of each kinase was checked by SDS-PAGE/silver staining and the identity of each kinase was verified by western blot analysis with kinase specific antibodies or by mass spectroscopy.
(§2) A radiometric protein kinase assay (^33PanQinase® Activity Assay) was used for measuring the kinase activity of the 24 protein kinases. All kinase assays were performed in 96-well FlashPlates™ from Perkin Elmer (Boston, Mass., USA) in a 50 μl reaction volume. The reaction cocktail was pipetted in 4 steps in the following order: • 20 μl of assay buffer • 5 μl of ATP solution (in H2O) • 5 μl of test compound (in 10% DMSO) • 10 μl of substrate/10 […] of enzyme solution (premixed)
(§3) The assay for all enzymes contained 60 mM HEPES-NaOH, pH 7.5, 3 mM MgCl2, 3 mM MnCl2, 3 μM Na-orthovanadate, 1.2 mM DTT, 50 μg/ml PEG20000, 1 μM [γ-^33P]-ATP (approx. 5×10^05 cpm per well).
(§4) For the 24 kinase assays, the following amounts of enzyme and substrate were used per well:
(§5) The reaction cocktails were incubated at 30° C. for 80 minutes. The reaction was stopped with 50 μl of 2% (v/v) H3PO4, plates were aspirated and washed two times with 200 μl of 0.9% (w/v) NaCl or 200 μl H2O. Incorporation of ^33Pi was determined with a microplate scintillation counter (Microbeta Trilux, Wallac).
(§6) The median value of the counts in column 1 (n=8) of each assay plate was defined as “low control”. This value reflects unspecific binding of radioactivity to the plate in the absence of a protein kinase but in the presence of the substrate. The median value of the counts in column 7 of each assay plate (n=8) was taken as the “high control”, i.e. full activity in the absence of any inhibitor. The difference between high and low control was taken as 100% activity.
(§7) As part of the data evaluation the low control value from a particular plate was subtracted from the high control value as well as from all 80 “compound values” of the corresponding plate. The residual activity (in %) for each well of a particular plate was calculated by using the following formula: Res. Activity (%)=100×[(cpm of compound−low control)/(high control−low control)]
(§8) The residual activities for each concentration and the compound IC50 values were calculated using Quattro Workflow V2.1.0.0 (Quattro Research GmbH, Munich, Germany; www.quattro-research.com). The model used was “Sigmoidal response (variable slope)” with parameters “top” fixed at 100% and “bottom” at 0%.

EPHB4 = molecular target: T2, EPHB4 (Homo sapiens, UniProt P54760); test: Radiometric protein kinase assay, EPHB4; details: 1 μM ATP; read-out: Inhibitory activity (IC50:μM) EPHB4
T2 construct: host or cells: Sf9 insect cells (baculovirus)
T2 sequence (P54760 16-987): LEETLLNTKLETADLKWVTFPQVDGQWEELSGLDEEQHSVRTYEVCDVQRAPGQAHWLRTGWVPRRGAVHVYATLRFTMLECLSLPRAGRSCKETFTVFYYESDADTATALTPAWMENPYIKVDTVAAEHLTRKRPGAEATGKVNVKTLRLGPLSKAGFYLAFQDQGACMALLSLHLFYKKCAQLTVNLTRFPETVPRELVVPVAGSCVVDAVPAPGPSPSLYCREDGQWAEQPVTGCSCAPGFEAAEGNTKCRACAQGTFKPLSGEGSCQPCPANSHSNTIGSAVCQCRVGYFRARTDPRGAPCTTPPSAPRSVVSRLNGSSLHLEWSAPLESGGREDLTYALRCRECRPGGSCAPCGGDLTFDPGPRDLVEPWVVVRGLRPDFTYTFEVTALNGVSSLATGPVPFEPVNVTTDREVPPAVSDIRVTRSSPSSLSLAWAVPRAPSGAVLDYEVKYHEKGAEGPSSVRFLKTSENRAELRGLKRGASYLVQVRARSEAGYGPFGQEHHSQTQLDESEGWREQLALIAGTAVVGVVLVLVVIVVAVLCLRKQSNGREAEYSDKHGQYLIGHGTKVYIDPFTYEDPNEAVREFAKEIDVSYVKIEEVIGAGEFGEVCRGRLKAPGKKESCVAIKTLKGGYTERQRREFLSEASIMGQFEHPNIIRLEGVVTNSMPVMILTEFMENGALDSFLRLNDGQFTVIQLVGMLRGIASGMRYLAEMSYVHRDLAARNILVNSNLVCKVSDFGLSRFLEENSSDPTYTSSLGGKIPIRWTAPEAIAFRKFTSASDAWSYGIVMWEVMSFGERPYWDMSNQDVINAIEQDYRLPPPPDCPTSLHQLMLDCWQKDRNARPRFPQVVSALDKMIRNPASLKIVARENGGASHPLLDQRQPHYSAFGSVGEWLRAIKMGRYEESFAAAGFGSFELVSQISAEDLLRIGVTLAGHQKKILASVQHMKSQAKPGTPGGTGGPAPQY
Source text: as §1, §2, §3, §4, §5, §6, §7, §8

SRC = molecular target: T3, SRC (Homo sapiens, UniProt P12931); test: Radiometric protein kinase assay, SRC; details: 1 μM ATP; read-out: Inhibitory activity (IC50:μM) SRC
T3 construct: host or cells: Sf9 insect cells (baculovirus)
T3 sequence (P12931 whole entry): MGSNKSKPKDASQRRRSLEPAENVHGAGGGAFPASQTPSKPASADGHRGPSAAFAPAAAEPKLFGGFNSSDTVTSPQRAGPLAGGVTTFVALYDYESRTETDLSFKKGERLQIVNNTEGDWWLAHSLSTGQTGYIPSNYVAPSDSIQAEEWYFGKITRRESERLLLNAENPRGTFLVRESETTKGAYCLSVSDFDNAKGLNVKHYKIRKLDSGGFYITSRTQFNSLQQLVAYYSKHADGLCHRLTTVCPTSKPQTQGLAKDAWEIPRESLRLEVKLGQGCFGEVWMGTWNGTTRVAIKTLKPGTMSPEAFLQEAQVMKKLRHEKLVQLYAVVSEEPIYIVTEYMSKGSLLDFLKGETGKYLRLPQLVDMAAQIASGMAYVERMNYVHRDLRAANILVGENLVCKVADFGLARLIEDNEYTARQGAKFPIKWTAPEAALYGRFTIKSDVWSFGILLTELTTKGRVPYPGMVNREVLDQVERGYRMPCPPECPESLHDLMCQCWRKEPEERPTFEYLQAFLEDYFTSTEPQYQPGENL
Source text: as §1, §2, §3, §4, §5, §6, §7, §8

T1 sequence (Q96GD4 whole entry): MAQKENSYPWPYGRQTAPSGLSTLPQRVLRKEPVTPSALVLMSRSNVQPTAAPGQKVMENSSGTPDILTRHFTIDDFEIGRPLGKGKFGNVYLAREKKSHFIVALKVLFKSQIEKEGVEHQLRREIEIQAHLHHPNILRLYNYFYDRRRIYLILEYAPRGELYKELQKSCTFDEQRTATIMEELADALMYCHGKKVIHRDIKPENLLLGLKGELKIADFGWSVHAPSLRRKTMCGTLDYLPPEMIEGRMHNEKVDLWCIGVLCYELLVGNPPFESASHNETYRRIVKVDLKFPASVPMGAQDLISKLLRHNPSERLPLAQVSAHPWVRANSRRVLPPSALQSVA

Row | Compound | IC50 (Aurora-B) | IC50 (EPHB4) | IC50 (SRC)
1 | COC1CC/C=C/C[C@H](c2ccccc2)OC(=O)c2c(O)cc(O)c(Cl)c2CC(=O)C1 (stereo partly drawn) [A-2] | 16 µM | 16 µM | 
2 | O=C1Cc2c(Cl)c(O)cc(O)c2C(=O)O[C@H](c2ccccc2)C/C=C/CCC(Cl)C1 (stereo partly drawn) [A-3] | 14 µM | 40 µM | 14 µM
3 | CC(C)[C@@H]1CC2OC2CC/C=C/C(=O)Cc2c(Cl)c(O)cc(O)c2C(=O)O1 (stereo partly drawn) [A-4] | 36 µM |  | 12 µM
4 | O=C1/C=C/CCC2OC2C[C@H](c2ccccc2)OC(=O)c2c(O)cc(O)c(Cl)c2C1 (stereo partly drawn) [A-5] |  | 49 µM | 12 µM
5 | O=C1/C=C/CCC2OC2C[C@@H](Cc2ccccc2)OC(=O)c2c(O)cc(O)cc2C1 (stereo partly drawn) [A-6] | 16 µM | 40 µM | 20 µM
